{"source": "paper PMC8997995", "about": "“Amphiphilic Cell-Penetrating Peptides Containing Natural and Unnatural Amino Acids as Drug Delivery Agents” (Cells, 2022)", "key": {"[1]": {"system": "MES-SA cells", "assay": "In vitro cytotoxicity (MTS) in MES-SA cells", "type": "cell-based, human", "conditions": "10 µM, 24 h incubation, n = 3", "protocol": "SK-OV-3, CCRF-CEM, HEK-293, MDA-MB-468, LLC-PK1, and MES-SA were used to determine the cytotoxicity of the synthesized linear and cyclic peptides. About 5000, 10,000, and 50,000 cells were seeded for SK-OV-3, HEK-293, and CCRF-CEM cells, respectively, in 0.1 mL of medium per well of 96-well plates. […]\nAdhesive cells were detached with 0.05% trypsin/EDTA after 15 min. […] The cell viability was measured by utilizing Multi-Mode Microplate Reader (SpectraMax M5 model, Molecular Devices, San Jose, CA, USA) after adding 20 µL of the MTS reagent to each well and incubating for 3 additional hours. […] The percentage of cell viability was calculated using the following equation:(1) =(Average OD values of samples treated with the compound /Average OD values of no treatment samples )∗100"}, "[2]": {"system": "CCRF-CEM cells", "assay": "Cellular uptake by flow cytometry in CCRF-CEM cells", "type": "cell-based, human", "conditions": "3 h", "protocol": "CCRF-CEM and SK-OV-3 cells were used to measure the cellular uptake of a fluorescent-labeled phosphopeptide (F’-GpYEEI) (2 µM), stavudine (F’-d4T) (2 µM) lamivudine (F’-3TC) (1–2 µM), emtricitabine (F’-FTC) (2 µM), and siRNA (F’-siRNA) (36 nM) with the least toxic concentration for each linear and the cyclic peptide (10 µM). The uptake was measured in the presence and absence of the peptides. The SK-OV-3 (0.5 million) and CCRF-CEM (a million) cells were incubated in each well of 6-well plates with the synthesized peptide and the fluorescent-labeled compound in one well. Another well contained the fluorescent-labeled compound alone for 3 h in an incubator (37 °C in a humidified atmosphere of 5% CO2). […] For more details, please refer back to the cytotoxicity method described above.\nThe cells were transferred to FACS analysis tubes after being washed with phosphate-buffered saline (PBS). The cells were centrifuged 2500 RPM for 5 min with Fisher Scientific accuSpin Micro 17 to precipitate the cells and to allow replacing the supernatant. The cells were then vortexed with Nerl Blood Bank Saline pH 7–7.2 (flow cytometry buffer) and transferred to the tube through a sterile cell strainer 40 µm Nylon Mesh. Finally, the cells were resuspended in flow cytometry buffer and analyzed by flow cytometry (FACSVerse model, Becton Dickinson, San Jose, CA, USA) using the FITC channel and the BD FACSuite software. The device was washed before each experiment, and the flow rate was set at medium. Finally, the cells were analyzed by using FITC channel […] argon laser for the excitation and the emitted 519 nm fluorescence for detection. The data presented was based on the FITC-A mean intensity signal for 10,000 cells collected. All assays were performed in triplicates. Results were evaluated to determine whether the peptides are facilitating the fluorescence compound to cross the membrane.\nTo determine the mechanism of the cellular uptake, F’-[K(DipR)5] or the physical mixture of the F’-GpYEEI and [DipR]5 were used to measure the fluorescence in the treated CCRF-CEM cells. F’-[K(DipR)5] (5 or 10 µM) or the physical mixture of the F’-GpYEEI (2 µM) and [DipR]5 (5 or 10 µM) were incubated with CCRF-CEM cells over 3 h. After each incubation, the medium containing the peptide and cells was removed. The same protocol as the cellular uptake study was used to prepare the cells as described above. Finally, the cells were resuspended in the buffer and analyzed by flow cytometry using the FITC channel and the BD FACSuite software. The data presented was based on the percentage of FITC-A mean intensity signal for 10,000 cells collected. All assays were performed in triplicates."}, "[3]": {"assay": "Dynamic light scattering", "type": "physicochemical", "conditions": "DLS, 10 µM, 25 °C", "protocol": "The samples were prepared in 10 µM concentration and were incubated for approximately 2 h after thawing from a freezer (0 to −18 °C). Samples were analyzed by dynamic light scattering (DLS) for particle sizes and the polydispersity index (PI). The data were acquired by using a Zetasizer Nano ZS (Malvern, Worcestershire, UK), which has a 0.3 nm to 10 µm particle size range and was equipped with a laser beam (λ = 633 nm; 4 mW) and a scattered light detector positioned at an angle of 173° (noninvasive backscatter) in order to unmask scattered light signals of low intensity originated by the smaller particles. The analytical model was based on protein analysis. The sensitivity of the device is reported to be at 0.1 mg/mL (lysozyme). The refractive index and absorption were set at 1.450 and 0.001 for the material. The refractive index, viscosity, and temperature were set at 1.33, 0.8872, and 25 °C for dispersant. Particle sizes and PI measurements were made in disposable cuvettes (ZEN0040) at 25 °C and variable runs per measurement."}}, "note": "Non-standard residues stand in square brackets, D forms with d. Residues, ends and D or L forms follow the SMILES beside them. Dip = N[C@H](C(=O)O)C(c1ccccc1)c1ccccc1", "data": [{"smiles": "N=C(N)NCCC[C@@H]1NC(=O)[C@H](C(c2ccccc2)c2ccccc2)NC(=O)[C@H](CCCNC(=N)N)NC(=O)[C@H](C(c2ccccc2)c2ccccc2)NC(=O)[C@H](CCCNC(=N)N)NC(=O)[C@H](C(c2ccccc2)c2ccccc2)NC(=O)[C@H](CCCNC(=N)N)NC(=O)[C@H](C(c2ccccc2)c2ccccc2)NC(=O)[C@H](CCCNC(=N)N)NC(=O)[C@H](C(c2ccccc2)c2ccccc2)NC1=O", "note": "[[DipR]5] (cyclo([Dip]R[Dip]R[Dip]R[Dip]R[Dip]R))", "values": [{"measurement": "reduction of cell proliferation", "setting": "[1]", "result": 38, "unit": "%"}, {"measurement": "increase of cellular uptake of F′-3TC vs cargo alone", "setting": "[2]; F’-3TC 2 µM, peptide 10 µM, flow cytometry, n = 3", "result": 14, "unit": "fold"}, {"measurement": "increase of cellular uptake of F’-FTC vs cargo alone", "setting": "[2]; F’-FTC 2 µM, peptide 10 µM, flow cytometry, n = 3", "result": 13, "unit": "fold"}, {"measurement": "increase of cellular uptake of F’-GpYEEI", "setting": "[2]; F’-GpYEEI 2 µM, peptide 5 µM, n = 3", "result": 43, "unit": "fold"}, {"measurement": "cellular uptake of F’-GpYEEI relative to [R5K]W7A", "setting": "[2]; side-by-side comparison, F’-GpYEEI 2 µM, peptides 10 µM", "result": 5, "unit": "fold"}, {"measurement": "Z average size", "setting": "[3]", "result": 200.6, "unit": "nm"}, {"measurement": "polydispersity index (PI)", "setting": "[3]", "result": 0.359}]}]}
